These are literature values, as cited in US20040265249A1, “Composition for protecting skin from damaging effects of ultraviolet light” (Desert Whale Jojoba Company, priority 2003, published 2004).

For the data set the following is noted: Yagi K, Ohishi N, 1979.

For `COc1cc(/C=C/C(=O)O)ccc1O` [ferulic acid], the antioxidant action entry is “can scavenge free radicals”.
